A short description of the assay: CD69 Whole Blood Assay (CD69 Hu Blood FACS). In kind it is cell-based, human. The settings on record: Lymphocyte; human whole blood, anti-IgM activated B lymphocytes, FACS; IC70; Table 2 (unit inferred); read-out: CD69 Hu Blood FACS (IC70). A digest of the protocol: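 Human whole blood stimulated by crosslinking surface IgM with goat F(ab′)2 anti-human IgM; inhibition of CD69 expression on B lymphocytes measured by flow cytometry.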
In general, IC70 refers to the concentration at which the effect reaches the 70% level. Turning to `C[C@H]1c2cc(Nc3cc(-c4ccnc(N5CCn6c(cc7c6CC(C)(C)C7)C5=O)c4CO)cn(C)c3=O)nn2CCN1C` [Example 319, (S)-2-(5-((4,5-dimethyl-4,5,6,7-tetrahydropyrazolo[1,5-a]pyrazin-2-yl)amino)-3′-(hydroxymethyl)-1-methyl-6-oxo-1,6-dihydro-[3,4′-bipyridin]-2′-yl)-7,7-dimethyl-2,3,4,6,7,8-hexahydro-1H-cyclopenta[4,5]pyrrolo[1,2-a]pyrazin-1-one], the 70% effect concentration (IC70) worked out at 0.0167 µM.
Regarding `C[C@@H]1COC[C@H](C)N1C(=O)c1ccc(Nc2cc(-c3ccnc(N4CCn5c(cc6c5CC(C)(C)C6)C4=O)c3CO)cn(C)c2=O)nc1` [Example 320, 3-[4-[5-[[5-[(3S,5R)-3,5-dimethylmorpholine-4-carbonyl]-2-pyridyl]amino]-1-methyl-6-oxo-3-pyridyl]-3-(hydroxymethyl)-2-pyridyl]-7,7-dimethyl-1,2,6,8-tetrahydrocyclopenta[3,4]pyrrolo[3,5-b]pyrazin-4-one], the IC70 was determined as 0.0468 µM.
Then `C[C@@H]1COC[C@H](C)N1C(=O)c1ccc(Nc2cc(-c3ccnc(N4CCn5c(cc6c5CC(C)(C)C6)C4=O)c3CO)nn(C)c2=O)nc1` [Example 321, 3-[4-[5-[[5-[(3 S,5R)-3,5-dimethylmorpholine-4-carbonyl]-2-pyridyl]amino]-1-methyl-6-oxo-pyridazin-3-yl]-3-(hydroxymethyl)-2-pyridyl]-7,7-dimethyl-1,2,6,8-tetrahydrocyclopenta[3,4]pyrrolo[3,5-b]pyrazin-4-one], with 0.112 µM; and `C[C@@H]1COC[C@H](C)N1C(=O)c1ccc(Nc2cc(-c3ccnc(N4CCn5c(cc6c5CCCC6)C4=O)c3CO)cn(C)c2=O)nc1` [Example 322, 2-[4-[5-[[5-[(3S,5R)-3,5-dimethylmorpholine-4-carbonyl]-2-pyridyl]amino]-1-methyl-6-oxo-3-pyridyl]-3-(hydroxymethyl)-2-pyridyl]-3,4,6,7,8,9-hexahydropyrazino[1,2-a]indol-1-one], with 0.0796 µM; and `COC1CN(c2ccc(Nc3cc(-c4ccnc(N5CCn6c(cc7c6CC(C)(C)C7)C5=O)c4CO)cn(C)c3=O)nc2)C1` [Example 323, 3-[3-(hydroxymethyl)-4-[5-[[5-(3-methoxyazetidin-1-yl)-2-pyridyl]amino]-1-methyl-6-oxo-3-pyridyl]-2-pyridyl]-7,7-dimethyl-1,2,6,8-tetrahydrocyclopenta[3,4]pyrrolo[3,5-b]pyrazin-4-one], with 0.279 µM.
The figure for `C[C@H]1COC[C@H](C)N1C(=O)c1ccc(Nc2cc(-c3ccnc(N4CCn5c(cc6c5CC(C)(C)C6)C4=O)c3CO)nn(C)c2=O)nc1` [Example 324, 3-[4-[5-[[5-[(3 S,5 S)-3,5-dimethylmorpholine-4-carbonyl]-2-pyridyl]amino]-1-methyl-6-oxo-pyridazin-3-yl]-3-(hydroxymethyl)-2-pyridyl]-7,7-dimethyl-1,2,6,8-tetrahydrocyclopenta[3,4]pyrrolo[3,5-b]pyrazin-4-one] is 0.0858 µM.
Then `Cc1nn(C)c2cnc(Nc3cc(-c4ccnc(N5CCn6c(cc7c6CC(C)(C)C7)C5=O)c4CO)cn(C)c3=O)cc12` [Example 325, 3-[4-[5-[(1,3-dimethylpyrazolo[3,4-c]pyridin-5-yl)amino]-1-methyl-6-oxo-3-pyridyl]-3-(hydroxymethyl)-2-pyridyl]-7,7-dimethyl-1,2,6,8-tetrahydrocyclopenta[3,4]pyrrolo[3,5-b]pyrazin-4-one], with 1.4 µM; and `Cc1c2cc(Nc3cc(-c4ccnc(N5CCn6c(cc7c6CC(C)(C)C7)C5=O)c4CO)cn(C)c3=O)ncc2nn1C` [Example 326, 3-[4-[5-[(2,3-dimethylpyrazolo[3,4-c]pyridin-5-yl)amino]-1-methyl-6-oxo-3-pyridyl]-3-(hydroxymethyl)-2-pyridyl]-7,7-dimethyl-1,2,6,8-tetrahydrocyclopenta[3,4]pyrrolo[3,5-b]pyrazin-4-one], with 1.4 µM.
As for `COCCN1CCn2nc(Nc3cc(-c4ccnc(N5CCn6c(cc7c6CC(C)(C)C7)C5=O)c4CO)c(C)n(C)c3=O)cc2C1` [Example 327, 3-[3-(hydroxymethyl)-4-[5-[[5-(2-methoxyethyl)-6,7-dihydro-4H-pyrazolo[1,5-a]pyrazin-2-yl]amino]-1,2-dimethyl-6-oxo-3-pyridyl]-2-pyridyl]-7,7-dimethyl-1,2,6,8-tetrahydrocyclopenta[3,4]pyrrolo[3,5-b]pyrazin-4-one], the IC70 was found to be 2.2 µM.
Then `COCCN1CCn2nc(Nc3cc(-c4cncc(N5CCn6c(cc7c6CC(C)(C)C7)C5=O)c4CO)cn(C)c3=O)cc2C1` [Example 328, 3-[4-(hydroxymethyl)-5-[5-[[5-(2-methoxyethyl)-6,7-dihydro-4H-pyrazolo[1,5-a]pyrazin-2-yl]amino]-1-methyl-6-oxo-3-pyridyl]-3-pyridyl]-7,7-dimethyl-1,2,6,8-tetrahydrocyclopenta[3,4]pyrrolo[3,5-b]pyrazin-4-one], with 0.0124 µM; and `COCCN1CCn2nc(Nc3cc(-c4nccc(N5CCn6c(cc7c6CC(C)(C)C7)C5=O)c4CO)cn(C)c3=O)cc2C1` [Example 329, 3-[3-(hydroxymethyl)-2-[5-[[5-(2-methoxyethyl)-6,7-dihydro-4H-pyrazolo[1,5-a]pyrazin-2-yl]amino]-1-methyl-6-oxo-3-pyridyl]-4-pyridyl]-7,7-dimethyl-1,2,6,8-tetrahydrocyclopenta[3,4]pyrrolo[3,5-b]pyrazin-4-one], with 0.11 µM; and `Cn1nc(-c2ccnc(N3CCc4c(sc5c4CC(C)(C)C5)C3=O)c2CO)cc(Nc2cc3n(n2)CC(C)(C)OC3)c1=O` [Example 330, 3-[4-[5-[(6,6-dimethyl-4,7-dihydropyrazolo[5,1-c][1,4]oxazin-2-yl)amino]-1-methyl-6-oxo-pyridazin-3-yl]-3-(hydroxymethyl)-2-pyridyl]-7,7-dimethyl-1,2,6,8-tetrahydrocyclopenta[3,4]thieno[1,3-c]pyridin-4-one], with 0.235 µM.
The figure for `CCc1nnc(Nc2cc(-c3ccnc(N4CCn5c(cc6c5CC(C)(C)C6)C4=O)c3CO)cn(C)c2=O)s1` [Example 332, 3-[4-[5-[(5-ethyl-1,3,4-thiadiazol-2-yl)amino]-1-methyl-6-oxo-3-pyridyl]-3-(hydroxymethyl)-2-pyridyl]-7,7-dimethyl-1,2,6,8-tetrahydrocyclopenta[3,4]pyrrolo[3,5-b]pyrazin-4-one] is 0.0919 µM; for `Cn1cc(Nc2cc(-c3ccnc(N4CCc5c(sc6c5CC(C)(C)C6)C4=O)c3CO)cn(C)c2=O)nn1` [Example 333, 3-[3-(hydroxymethyl)-4-[1-methyl-5-[(1-methyltriazol-4-yl)amino]-6-oxo-3-pyridyl]-2-pyridyl]-7,7-dimethyl-1,2,6,8-tetrahydrocyclopenta[3,4]thieno[1,3-c]pyridin-4-one] it is 0.209 µM; for `Cn1cc(-c2ccnc(-n3ncc4c5c(sc4c3=O)CC(C)(C)C5)c2CO)cc(Nc2cc3n(n2)CC(C)(C)OC3)c1=O` [Example 335, 3-[4-[5-[(6,6-dimethyl-4,7-dihydropyrazolo[5,1-c][1,4]oxazin-2-yl)amino]-1-methyl-6-oxo-3-pyridyl]-3-(hydroxymethyl)-2-pyridyl]-7,7-dimethyl-6,8-dihydrocyclopenta[3,4]thieno[1,3-d]pyridazin-4-one] it is 0.0528 µM.
Then `COCc1cc(Nc2cc(-c3ccnc(N4CCc5c(cc6n5CCCC6)C4=O)c3CO)cn(C)c2=O)nn1C` [Example 336, 2-[3-(hydroxymethyl)-4-[5-[[5-(methoxymethyl)-1-methyl-pyrazol-3-yl]amino]-1-methyl-6-oxo-3-pyridyl]-2-pyridyl]-3,4,6,7,8,9-hexahydropyrido[3,4-b]indolizin-1-one], with 0.33 µM.
Take `Cc1nc(Nc2cc(-c3ccnc(N4CCn5c(cc6c5CC(C)(C)C6)C4=O)c3CO)cn(C)c2=O)cn1C` [Example 337, 3-[4-[5-[(1,2-dimethylimidazol-4-yl)amino]-1-methyl-6-oxo-3-pyridyl]-3-(hydroxymethyl)-2-pyridyl]-7,7-dimethyl-1,2,6,8-tetrahydrocyclopenta[3,4]pyrrolo[3,5-b]pyrazin-4-one]: the IC70 was 0.613 µM.
In the case of `Cn1cc(-c2ccnc(N3CCn4c(cc5c4CC(C)(C)C5)C3=O)c2CO)cc(Nc2cc3n(n2)CCN(CCC#N)C3)c1=O` [Example 338, 3-[2-[[5-[2-(7,7-dimethyl-4-oxo-1,2,6,8-tetrahydrocyclopenta[3,4]pyrrolo[3,5-b]pyrazin-3-yl)-3-(hydroxymethyl)-4-pyridyl]-1-methyl-2-oxo-3-pyridyl]amino]-6,7-dihydro-4H-pyrazolo[155-a]pyrazin-5-yl]propanenitrile], the IC70 was 0.0178 µM.
Take `COCCN1CCN(c2ccc(Nc3cc(-c4ccnc(N5CCn6c(cc7c6CC(C)(C)C7)C5=O)c4CO)cn(C)c3=O)nc2)CC1` [Example 339, 3-[3-(hydroxymethyl)-4-[5-[[5-[4-(2-methoxyethyl)piperazin-1-yl]-2-pyridyl]amino]-1-methyl-6-oxo-3-pyridyl]-2-pyridyl]-7,7-dimethyl-1,2,6,8-tetrahydrocyclopenta[3,4]pyrrolo[3,5-b]pyrazin-4-one]: the IC70 came out at 0.0535 µM.
For `COCCN1CCN(c2ccc(Nc3cc(-c4ccnc(N5CCn6c(cc7c6CC(C)(C)C7)C5=O)c4CO)cn(C)c3=O)nc2)[C@@H](C)C1` [Example 340, 3-[3-(hydroxymethyl)-4-[5-[[5-[(2S)-4-(2-methoxyethyl)-2-methyl-piperazin-1-yl]-2-pyridyl]amino]-1-methyl-6-oxo-3-pyridyl]-2-pyridyl]-7,7-dimethyl-1,2,6,8-tetrahydrocyclopenta[3,4]pyrrolo[3,5-b]pyrazin-4-one], the IC70 was 0.0207 µM.

(Values after US10045983B2, “Heteroaryl pyridone and aza-pyrodine compounds” (Genentech, Inc., priority 2011, dated 2018).)
